Results taken from patent publication US5492919A, “5-HT4 receptor antagonists” (SmithKline Beecham p.l.c., priority 1991, dated 1996).

Tests used:
[1] = molecular target: T1, 5-HT4 receptor (Cavia porcellus, UniProt O70528); assay: 5-HT4 receptor antagonist activity: guinea pig colon (longitudinal muscle-myenteric plexus preparations), reduction of 5-HT-evoked contractions; assay type: cell-based; details: for activity in guinea pig colon, in words: relative to compounds generally active at pIC50 = 6 or more
T1 construct: Longitudinal muscle-myenteric plexus preparations, approximately 3 cm long, are obtained from the distal colon region; from tissue; host or cells: guinea pig distal colon, longitudinal muscle-myenteric plexus preparation
T1 sequence (O70528 whole entry): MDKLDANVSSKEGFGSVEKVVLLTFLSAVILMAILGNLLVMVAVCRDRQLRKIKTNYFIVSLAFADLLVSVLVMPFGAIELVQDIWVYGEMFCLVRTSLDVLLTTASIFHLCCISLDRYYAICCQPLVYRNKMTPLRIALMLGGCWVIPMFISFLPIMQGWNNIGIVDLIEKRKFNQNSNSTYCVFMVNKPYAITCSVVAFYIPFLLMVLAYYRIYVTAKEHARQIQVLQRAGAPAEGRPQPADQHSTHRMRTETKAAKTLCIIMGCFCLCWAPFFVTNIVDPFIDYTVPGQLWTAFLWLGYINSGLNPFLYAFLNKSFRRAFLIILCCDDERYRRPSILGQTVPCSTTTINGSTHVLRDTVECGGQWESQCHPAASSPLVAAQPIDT
Description: (§1) 5-HT4 RECEPTOR ANTAGONIST ACTIVITY
Male guinea-pigs, weighing 250-400 g are used. Longitudinal muscle-myenteric plexus preparations, approximately 3 cm long, are obtained from the distal colon region. These are suspended under a 0.5 g load in isolated tissue baths containing Krebs solution bubbled with 5% CO2 in O2 and maintained at 37° C. In all experiments, the Krebs solution also contains methiothepin 10^-7 M and granisetron 10^-6 M to block effects at 5-HT1, 5-HT2 and 5-HT3 receptors.
After construction of a simple concentration-response curve with 5-HT, using 30s contact times and a 15rain dosing cycle, a concentration of 5-HT is selected so as to obtain a contraction of the muscle approximately 40-70% maximum(10^-9 M approx). The tissue is then alternately dosed every 15 min with this concentration of 5-HT and then with an approximately equi-effective concentration of the nicotine receptor stimulant, dimethylphenylpiperazinium (DMPP). After obtaining consistent responses to both 5-HT and DMPP, increasing concentrations of a putative 5-HT4 receptor antagonist are then added to the bathing solution. The effects of this compound are then determined as a percentage reduction of the contractions evoked by 5-HT or by DMPP. […] A compound which reduces the response to 5-HT but not to DMPP is believed to act as a 5-HT4 receptor antagonist.

[2] = molecular target: T2, 5-HT4 receptor (Sus scrofa, UniProt Q6Q253); assay: 5-HT4 receptor antagonist activity: piglet atria, piglet spontaneous beating screen; assay type: cell-based
T2 construct: functional antagonism (pKB)
T2 sequence (Q6Q253 1-402): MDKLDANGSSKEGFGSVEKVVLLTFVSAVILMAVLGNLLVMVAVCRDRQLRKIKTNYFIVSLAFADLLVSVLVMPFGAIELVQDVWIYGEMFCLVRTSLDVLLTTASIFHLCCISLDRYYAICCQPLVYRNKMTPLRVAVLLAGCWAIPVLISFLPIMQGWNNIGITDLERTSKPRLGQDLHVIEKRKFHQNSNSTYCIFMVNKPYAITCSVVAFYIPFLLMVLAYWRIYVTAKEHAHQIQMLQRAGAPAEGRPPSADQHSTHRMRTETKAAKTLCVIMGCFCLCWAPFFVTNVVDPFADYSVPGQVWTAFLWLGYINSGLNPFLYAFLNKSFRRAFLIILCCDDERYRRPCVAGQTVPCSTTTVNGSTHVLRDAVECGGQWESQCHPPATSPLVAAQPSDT
Description: as §1
Compounds were tested in the piglet spontaneous beating screen (Naunyn-Schmiedeberg's Arch. Pharmacol 342, 619-622). pKB (-log10 KB) value for the compound of Example 21 of EP-A-328200 was 7.6.

SMILES	activity in guinea pig colon, in words [1]	IC50 ([1]; 5-HT approx 10^-9 M, Krebs solution with methiothepin 10^-7 M and granisetron 10^-6 M, 37° C, read-out: pIC50 (-log concentration of antagonist which reduces the contraction by 50%) (converted)) [nM]	pKB (-log10 KB) [2]
CCCCN1CCC(Cc2nc(-c3cn(C)c4ccccc34)no2)CC1 [Example E3]	particularly good activity		
Cn1cc(-c2noc(CCN3CCCCC3)n2)c2ccccc21 [Example 21 of EP-A-328200, 1-methyl-3-[5-(2-(1-piperidyl)ethyl)-1,2,4-oxadiazol-3-yl]indole]		50.1	7.6
CCCCN(C)CCCc1nc(-c2cn(C)c3ccccc23)no1 [Example E1, 5-[3-(N-Methylbutylamino)propyl]-3-[1-methyl-1H-indol-3-yl]-1,2,4-oxadiazole]	particularly good activity		
